Test results published in PubChem BioAssay AID1013 (Columbia University Molecular Screening Center, 2008).
Active and inactive are the calls of the source. The rule behind the calls is not given here.

Test: blockers of VCAM1 upregulation by TNFa – imaging, TNFa stimulus, retest and dose response, confirmation (AID 1013);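 for cell count: compound on cells 1 h before TNFa then 24 h more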
Settings: TNFa-stimulated cells, VCAM1 expression imaging; at 2 µM; stronger effect = higher value

**Q.** With `COc1ccc(Oc2cc(NC(=O)c3nn(C)cc3[N+](=O)[O-])cc([N+](=O)[O-])c2)cc1` as the compound, how does the inhibition read?
**A.** 74.7% (inactive)

**Q.** Which inhibition does the source give for `Cc1csc(NC(=O)CSc2nnc(-c3ccc(S(=O)(=O)N4CCCC4)cc3)o2)n1` here?
**A.** 12.9% (inactive)

**Q.** With `CCOc1ccc(-n2c(SCC(=O)Nc3ccc(OC)cc3)nc3c(c2=O)SCC3)cc1` as the compound, how does the inhibition read?
**A.** -17% (inactive)

**Q.** For `COc1ccc(NC(=O)N2CCn3c2nc2ccccc23)cc1`, which inhibition is on record?
**A.** 13% (inactive)

**Q.** Which inhibition does the source give for `C=CCOC(=O)C1=C(C)OC(N)=C(C#N)C12C(=O)N(CN1CCOCC1)c1ccccc12` (stereo not given) here?
**A.** -12.1% (inactive)

**Q.** Which inhibition does the source give for `COC(=O)c1ccc(-n2nnnc2SCC(=O)N2CCCCC2)cc1` here?
**A.** 0.2% (inactive)

**Q.** For `O=C(Nc1ccccc1)/C(=C\c1ccc2c(c1)OCO2)NC(=O)c1ccco1`, which inhibition is on record?
**A.** -3% (inactive)

**Q.** For `COc1ccccc1N(C)S(=O)(=O)c1ccc(C(=O)NCC(C)C)cc1`, which inhibition is on record?
**A.** -6.5% (inactive)

**Q.** With `COc1ccc(-c2nc(C#N)c(NCCCN(C)C)o2)cc1OC` as the compound, how does the inhibition read?
**A.** -0.1% (inactive)

**Q.** Which inhibition does the source give for `COC(=O)c1cccc(S(=O)(=O)N(Cc2ccco2)Cc2cc3ccc(OC)cc3[nH]c2=O)c1` here?
**A.** -3.6% (inactive)

**Q.** With `CCOc1ccc(C(=O)C(c2ccccc2)N2CCOCC2)cc1` (stereo not given) as the compound, how does the inhibition read?
**A.** -17.7% (inactive)

**Q.** Which inhibition does the source give for `Nc1nc2c3ccccc3nc(Cc3ccccc3)n2n1` here?
**A.** -8.7% (inactive)

**Q.** For `COC1(c2ccccc2)NC(=S)NN=C1c1ccccc1` (stereo not given), which inhibition is on record?
**A.** -8.1% (inactive)

**Q.** With `CCCCN(C(=O)NC(=O)Nc1cccc(C)c1C)S(C)(=O)=O` as the compound, how does the inhibition read?
**A.** 9.3% (inactive)

**Q.** For `CC1=C(C#N)C(Nc2cccc(C)n2)(C(F)(F)F)C(=O)N1` (stereo not given), which inhibition is on record?
**A.** -1% (inactive)

**Q.** Which inhibition does the source give for `CCCn1c(SCC(=O)NCc2ccco2)nnc1C(C)C` here?
**A.** -9.8% (inactive)

**Q.** Which inhibition does the source give for `CC(C)C(=O)Nc1ccc(C(=O)NNC(=O)NC2CCCCC2)cc1` here?
**A.** -6.3% (inactive)

**Q.** With `C/C(=N\Nc1nc2c(s1)CCCC2)c1ccccc1` as the compound, how does the inhibition read?
**A.** 3.8% (inactive)

**Q.** Which inhibition does the source give for `O=C1C(Cc2ccccc2)NC(=S)N1c1ccccc1` (stereo not given) here?
**A.** 9.6% (inactive)

**Q.** Which inhibition does the source give for `Cc1n[nH]c(=O)nc1NCc1ccccc1` here?
**A.** -9.9% (inactive)

**Q.** Which inhibition does the source give for `O=c1c2ccccc2nnn1CSc1ncnc2ccccc12` here?
**A.** 15.2% (inactive)

**Q.** For `COc1ccc(S(=O)(=O)NC(CC(=O)NCc2ccco2)C(C)C)cc1` (stereo not given), which inhibition is on record?
**A.** 4.6% (inactive)

**Q.** With `Cc1nc(NC(C)C)c2oc3ccccc3c2n1` as the compound, how does the inhibition read?
**A.** 18.8% (inactive)

**Q.** With `O=C(COC(=O)C1(c2ccccc2F)CCCC1)NC1CCS(=O)(=O)C1` (stereo not given) as the compound, how does the inhibition read?
**A.** -6.3% (inactive)

**Q.** For `CSc1ccc(S(=O)(=O)Nc2ccc3c4c(cccc24)CC3)cc1`, which inhibition is on record?
**A.** 17.6% (inactive)

**Q.** Which inhibition does the source give for `CCN(Cc1cc2cc(C)ccc2[nH]c1=O)C(=O)c1cccc(OC)c1` here?
**A.** -11.5% (inactive)

**Q.** For `Cc1ccc(-c2nn(C(C)(C)C)c3ncnc(N)c23)cc1`, which inhibition is on record?
**A.** -0.9% (inactive)

**Q.** With `CN(Cc1ccccc1)S(=O)(=O)c1ccc(NC(=S)NC(=O)C2CCCC2)cc1` as the compound, how does the inhibition read?
**A.** 17.2% (inactive)

**Q.** With `Cc1ccc(S(=O)(=O)Nc2cc(C(=O)NCCN3CCCC3)ccc2N2CCCCC2)cc1` as the compound, how does the inhibition read?
**A.** -2.2% (inactive)

**Q.** Which inhibition does the source give for `CN1C(=O)C2(NCCc3c2[nH]c2ccccc32)c2ccccc21` (stereo not given) here?
**A.** -19.9% (inactive)

**Q.** With `C[n+]1ccc(/C=C/c2ccc(Br)cc2)cc1` as the compound, how does the inhibition read?
**A.** 13.1% (inactive)

**Q.** For `N#Cc1nc(-c2ccco2)oc1N1CCOCC1`, which inhibition is on record?
**A.** -13.5% (inactive)

**Q.** For `NCCN1CCN(CCN)CC1`, which inhibition is on record?
**A.** -8.3% (inactive)

**Q.** For `O=S(=O)(c1ccc2c(c1)OCCCO2)N1CCNCC1`, which inhibition is on record?
**A.** 0.5% (inactive)

**Q.** For `CCOC(=O)c1cnc(-n2nc(C)cc2C)nc1NCc1ccccc1`, which inhibition is on record?
**A.** 7.9% (inactive)

**Q.** With `COc1ccc(-c2cc(=O)[nH]c(NCc3ccccc3)n2)cc1` as the compound, how does the inhibition read?
**A.** 15.6% (inactive)

**Q.** Which inhibition does the source give for `Cc1cc(C)cc(OCCCCCNCCO)c1` here?
**A.** -9.9% (inactive)

**Q.** With `Cc1cc(N2CCOCC2)c2c(N)c(C)cc(C)c2n1` as the compound, how does the inhibition read?
**A.** -11% (inactive)

**Q.** With `O=C(NC(Cc1c[nH]c2ccccc12)C(=O)O)c1ccco1` (stereo not given) as the compound, how does the inhibition read?
**A.** -11.2% (inactive)

**Q.** For `Cc1ccc(C(=O)CSc2nnc(COc3ccc(C#N)cc3)n2-c2ccccc2)cc1`, which inhibition is on record?
**A.** -0.7% (inactive)

**Q.** With `COc1ccccc1-c1cn(S(=O)(=O)c2ccc(C)cc2)nc1N` as the compound, how does the inhibition read?
**A.** 2.2% (inactive)

**Q.** For `NC1=CC(=O)c2cccc3cccc1c23`, which inhibition is on record?
**A.** 6.1% (inactive)

**Q.** For `CCOC(=O)c1cnn(-c2nc(-c3ccc(C)cc3)cs2)c1C(F)(F)F`, which inhibition is on record?
**A.** 8.3% (inactive)

**Q.** For `COC(=O)C1C(=O)C2=C(CC1C)NC(=O)CC2c1cccc(C)c1` (stereo not given), which inhibition is on record?
**A.** -3.9% (inactive)

**Q.** With `CC1CCCN(c2nc3ccsc3c(=O)s2)C1` (stereo not given) as the compound, how does the inhibition read?
**A.** -1.5% (inactive)

**Q.** Which inhibition does the source give for `Cc1ccc(N/N=C/c2ccc(N3CCOCC3)cc2)cc1C` here?
**A.** -4.8% (inactive)

**Q.** With `CC(C)(C)SCCNC(=O)CN(c1ccc(F)cc1)S(C)(=O)=O` as the compound, how does the inhibition read?
**A.** -12.2% (inactive)

**Q.** For `COCCCNC(=O)c1cn(C)c(=O)c2cc(OC)c(OC)cc12`, which inhibition is on record?
**A.** 4.1% (inactive)

**Q.** With `CCOC(=O)Cc1csc(SCC(=O)/C(C#N)=C(\C)N)n1` as the compound, how does the inhibition read?
**A.** 3.4% (inactive)

**Q.** With `O=C(NCc1ccco1)C1CC(=O)N(c2ccc(F)cc2)C1` (stereo not given) as the compound, how does the inhibition read?
**A.** 6% (inactive)

**Q.** For `COc1ccc(C(C)(C)C)cc1S(=O)(=O)N1CCN(C)CC1`, which inhibition is on record?
**A.** -3.3% (inactive)

**Q.** With `CC1CCN(C(=O)C2c3ccccc3C(=O)N3CCc4ccccc4C23)CC1` (stereo not given) as the compound, how does the inhibition read?
**A.** 3.6% (inactive)

**Q.** For `O=C(Nc1ncc2c(n1)CC(c1ccco1)CC2=O)c1ccc(Cl)cc1` (stereo not given), which inhibition is on record?
**A.** -0.3% (inactive)

**Q.** Which inhibition does the source give for `CCOc1ccc(C=O)cc1CN1CCCCC1` here?
**A.** 1.5% (inactive)

**Q.** Which inhibition does the source give for `CCOC(=O)N1CCN(C(=O)COc2ccc(Cl)cc2C)CC1` here?
**A.** 5.2% (inactive)

**Q.** Which inhibition does the source give for `CCOC(=O)C1=C(c2ccccc2)OC(N)=C(C#N)C1c1ccco1` (stereo not given) here?
**A.** 13.3% (inactive)

**Q.** Which inhibition does the source give for `CCCc1sc(N/N=C/c2ccccn2)nc1-c1ccc(Br)cc1` here?
**A.** 7.8% (inactive)

**Q.** For `COc1cccc(/C=N/Nc2nc(Nc3ccccc3)nc(-n3nc(C)cc3C)n2)c1O`, which inhibition is on record?
**A.** -11.8% (inactive)

**Q.** For `COc1ccc(Cn2c(CCC(=O)O)nc3cccnc32)cc1`, which inhibition is on record?
**A.** 1.7% (inactive)

**Q.** Which inhibition does the source give for `CCn1c(SCC(=O)Nc2cc(C)on2)nnc1-c1ccccc1` here?
**A.** -7.4% (inactive)

**Q.** With `COc1ccc(S(=O)(=O)Nc2nc3n(n2)C(c2ccc(Cl)cc2)CC(=O)N3)cc1` (stereo not given) as the compound, how does the inhibition read?
**A.** -17.4% (inactive)

**Q.** Which inhibition does the source give for `OCCCCNc1cccc2ccccc12` here?
**A.** -3.2% (inactive)

**Q.** For `CCCc1[nH]nc2c1C(c1cccnc1)C(C#N)=C(N)O2` (stereo not given), which inhibition is on record?
**A.** -7.9% (inactive)

**Q.** For `O=C(N/N=C/c1ccc[nH]1)c1sc2ccccc2c1Cl`, which inhibition is on record?
**A.** 13.1% (inactive)

**Q.** With `Cc1cc(C)n(-c2nc(-c3cccc(Cl)c3)cs2)n1` as the compound, how does the inhibition read?
**A.** 2.2% (inactive)

**Q.** For `O=C(NCc1ccco1)c1cc(-c2ccc(Cl)cc2)on1`, which inhibition is on record?
**A.** -6.2% (inactive)

**Q.** For `Nc1ccccc1NC(=O)c1ccccc1N`, which inhibition is on record?
**A.** -3.2% (inactive)

**Q.** With `CC(C)c1nnc(NC(=O)CCC(=O)N2CCN(C3CCCCC3)CC2)s1` as the compound, how does the inhibition read?
**A.** 2.9% (inactive)

**Q.** For `O=C(O)Cc1ccc(NC(=O)C2CC=CCC2C(=O)O)cc1` (stereo not given), which inhibition is on record?
**A.** 4.4% (inactive)

**Q.** Which inhibition does the source give for `CCn1c(SCC(=O)NC(C)c2ccccc2)nc2ccccc21` (stereo not given) here?
**A.** -13.3% (inactive)

**Q.** For `O=C(O)C1CCC(N2C(=O)C3CCCCC3C2=O)CC1` (stereo not given), which inhibition is on record?
**A.** 12.7% (inactive)

**Q.** With `Cc1cc(C(=O)NN)c2cc(Br)ccc2n1` as the compound, how does the inhibition read?
**A.** -7.2% (inactive)

**Q.** For `CC(=O)c1cccc(NC(=O)c2cc(-c3ccc(F)cc3)on2)c1`, which inhibition is on record?
**A.** -10.4% (inactive)

**Q.** With `CCOc1ccc(N2C(=O)CSC2c2ccncc2)cc1` (stereo not given) as the compound, how does the inhibition read?
**A.** 0% (inactive)

Same assay, conditions: TNFa-stimulated cells, VCAM1 expression imaging; cell count; at 10 µM; stronger effect = lower value

**Q.** With `COc1ccc(Oc2cc(NC(=O)c3nn(C)cc3[N+](=O)[O-])cc([N+](=O)[O-])c2)cc1` as the compound, how does the cell count read?
**A.** 114%
